Drawing on US6677369B2, “Antithrombotic agents” (Eli Lilly and Company, priority 1997, dated 2004), this text covers melting point for five molecules.

Counter-ions that a name gives are not always drawn.

For `CCOc1ccc(C(=O)Nc2ccccc2NC(=O)c2cccc(C(=N)N)c2)cc1` [Example 38, N^1-[3-(amino(imino)methyl)benzoyl]-N^2-(4-ethoxybenzoyl)-1,2-benzenediamine], the melting point lay in the range of 163 to 165 °C.
In the case of `CC(C)(C)c1ccc(C(=O)Nc2ccccc2C(=O)Nc2cccc(C(=N)N)c2)cc1.Cl`, the melting point lay within 194 to 196 °C.
Next, `CC(C)(C)c1ccc(C(=O)Nc2ccccc2NC(=O)c2cccc(C(=N)N)c2)cc1.Cl`: 196 to 198 °C; `CC(C)c1ccc(C(=O)Nc2ccccc2NC(=O)c2cccc(C(=N)N)c2)cc1.Cl`: 227 to 229 °C; `COc1ccc(NC(=O)c2ccccc2NC(=O)c2cccc(C(=N)N)c2)cc1` (as salt: salt) [Example 12, 2-[3-(amino(imino)methyl)benzoylamino]-N-(4-methoxyphenyl)benzamide]: 163 to 167 °C.

The melting point is the temperature, or range, at which the solid turns liquid.
